Measured values reported in patent US20060270634A1, “Acetal phosphate-derived LPA mimics, PPARgamma activators, and autotaxin inhibitors” (priority 2005, published 2006).
Where two headings read alike, the source gives them in different places. Each block holds one molecule with its values, some of them ahead of it.

What was measured:
[1] = molecular target: lysophospholipase D (autotaxin, ATX) (Homo sapiens, UniProt Q13822); experiment: Inhibition of lysophospholipase D autotaxin; type: biochemical; conditions: Table 3
Experimental: (§1) The biological effects of all synthesized compounds were testing using three high-throughput assays. First, intracellular calcium transients in rat hepatoma (RH777, an LPA receptor null cell) cell lines individually expressing either LPA1, LPA2, and LPA3 receptors were analyzed to evaluate compounds as agonists or antagonists. […] The PPRE-Acox-Rluc construct contains a renilla luciferase coding region, an acyl-CoA oxidase coding region, and a PPAR response element coding region. Third, inhibition of the lysophospholipase D autotoxin was determined using a previously described procedure.
LPA is liberated as the product of lysophosphatidylcholine hyrolysis by the lysophospholipase D, autotaxin (ATX). The inventors screened Darmstoff analogs for ATX inhibition. As indicated by the data, all tested analogs are capable of ATX inhibition independently of their ligand properties at LPA GPCR and PPARγ.

[2] = molecular target: LPA2 (Homo sapiens, UniProt Q9HBW0); experiment: Ca2+ transients in RH7777 cells expressing LPA2 (agonist / inhibition of LPA response)
Chain of LPA2 (Q9HBW0 whole entry, species assumed): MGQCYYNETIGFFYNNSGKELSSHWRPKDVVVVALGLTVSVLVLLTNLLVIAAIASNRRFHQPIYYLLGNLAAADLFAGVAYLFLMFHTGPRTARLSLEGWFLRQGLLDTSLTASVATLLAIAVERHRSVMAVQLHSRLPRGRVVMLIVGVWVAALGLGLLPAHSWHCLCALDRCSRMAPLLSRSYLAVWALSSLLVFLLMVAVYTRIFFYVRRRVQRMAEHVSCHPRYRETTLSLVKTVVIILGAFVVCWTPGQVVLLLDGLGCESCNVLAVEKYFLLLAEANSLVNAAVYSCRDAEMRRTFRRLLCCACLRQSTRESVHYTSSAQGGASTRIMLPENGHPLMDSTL

[3] = molecular target: T1, PPARγ (Homo sapiens, UniProt P37231); experiment: PPARγ activation, PPRE-Acox-Rluc reporter gene assay in CV1 cells; type: cell-based; conditions: for PPARγ: Table 3; for PPARγ activation in words: FIG. 9: 10 μM, 20 h
T1 construct: expressed in transfected cells; host or cells: CV1 cells (African green monkey kidney)
T1 sequence (P37231 1-505): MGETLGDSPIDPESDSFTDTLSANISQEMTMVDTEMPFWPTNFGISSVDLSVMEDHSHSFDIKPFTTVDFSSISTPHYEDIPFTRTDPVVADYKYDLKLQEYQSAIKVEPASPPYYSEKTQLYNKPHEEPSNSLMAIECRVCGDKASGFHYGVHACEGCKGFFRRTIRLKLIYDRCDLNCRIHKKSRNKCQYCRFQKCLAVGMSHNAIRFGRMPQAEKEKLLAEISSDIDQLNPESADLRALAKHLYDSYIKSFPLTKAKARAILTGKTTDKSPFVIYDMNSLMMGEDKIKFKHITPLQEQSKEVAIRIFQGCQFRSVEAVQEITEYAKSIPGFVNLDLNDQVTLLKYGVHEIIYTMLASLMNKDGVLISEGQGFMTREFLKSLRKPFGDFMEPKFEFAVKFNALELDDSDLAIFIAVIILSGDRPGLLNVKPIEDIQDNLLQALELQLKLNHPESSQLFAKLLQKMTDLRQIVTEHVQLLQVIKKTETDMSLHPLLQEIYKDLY
Experimental: as §1
PPARγ is a lipid-activated transcription factor that belongs to the nuclear hormone superfamily. The inventors examined the activity of all synthesized Darmstoff analogs as PPARγ activators in vitro in CV1 cells using a PPRE-Acox-Rluc reporter gene assay. Rosiglitazone, a known PPARγ agonist, was used as a positive control for comparison.
RH7777 cells, which lack LPA GPCR, were stably transfected with individual LPA1, LPA2 and LPA3 receptors and used for the in vitro screening.
Unlike the enantiospecific responses compounds at LPA GPCR by APA analogs, there was no stereoselectivity observed in PPARγ activation by these analogs.

[4] = molecular target: T2, LPA3 (Homo sapiens, UniProt Q9UBY5); experiment: Ca2+ transients in RH7777 cells expressing LPA3 (agonist / inhibition of LPA response); conditions: for EC50: read-out: LPA3 EC50; for IC50: read-out: LPA3 IC50
T2 sequence (Q9UBY5 1-353): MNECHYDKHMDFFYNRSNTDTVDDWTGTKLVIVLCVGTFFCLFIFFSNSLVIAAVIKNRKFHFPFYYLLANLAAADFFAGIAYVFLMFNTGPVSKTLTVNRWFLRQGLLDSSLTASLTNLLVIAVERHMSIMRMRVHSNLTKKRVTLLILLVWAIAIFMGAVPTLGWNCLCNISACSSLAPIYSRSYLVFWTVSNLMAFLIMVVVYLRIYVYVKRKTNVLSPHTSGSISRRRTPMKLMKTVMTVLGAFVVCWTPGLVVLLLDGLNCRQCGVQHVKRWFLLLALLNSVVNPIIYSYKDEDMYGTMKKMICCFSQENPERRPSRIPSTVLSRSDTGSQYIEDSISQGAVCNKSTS

[5] = molecular target: T3, LPA1 (Homo sapiens, UniProt Q92633); experiment: Ca2+ transients in RH7777 cells expressing LPA1 (agonist / inhibition of LPA response)
T3 sequence (Q92633 whole entry, species assumed): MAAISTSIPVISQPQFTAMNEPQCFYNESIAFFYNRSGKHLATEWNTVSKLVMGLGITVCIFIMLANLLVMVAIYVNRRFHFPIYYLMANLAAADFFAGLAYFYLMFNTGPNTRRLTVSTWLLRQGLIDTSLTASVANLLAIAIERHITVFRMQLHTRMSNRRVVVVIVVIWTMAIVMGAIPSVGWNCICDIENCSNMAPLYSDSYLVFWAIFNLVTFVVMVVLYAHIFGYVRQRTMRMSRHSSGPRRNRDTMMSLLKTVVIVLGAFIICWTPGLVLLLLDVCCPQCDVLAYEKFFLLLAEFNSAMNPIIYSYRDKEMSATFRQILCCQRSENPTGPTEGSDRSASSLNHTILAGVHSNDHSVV

[6] = test system: PC3 cells; experiment: Calcium mobilization response in PC3 cells; type: cell-based; conditions: for IC50: read-out: PC3 cells IC50
[7] = molecular target: T2, LPA3; set-up: expressed in transfected cells; host or cells: RH7777 rat hepatoma cells; conditions: cited from earlier work
[8] = molecular target: T3, LPA1; set-up: expressed in transfected cells; host or cells: RH7777 rat hepatoma cells; conditions: cited from earlier work
[9] = Table 3, maximal efficacy of drug/maximal efficacy of LPA 18:1

Molecule: CCCCCCCCC=CCCCCCCCC1OCC(COP(=O)([O-])O)O1.[K+] (mixture of isomers) [Analog 13]
- ATX (% inhib.) [1]: 30%
- IC50 [1]: 141 nM
- LPA2 agonist/antagonist activity in words [2]: inhibited LPA1-3 receptors
- IC50 ([2]; read-out: LPA2 IC50, Table 3): > 30000 nM
- PPARγ [3]: Agonist
- LPA3 agonist/antagonist activity in words [4]: LPA1/3 antagonist activity
- Ki ([4]; read-out: LPA3 (Ki), Table 3): 548 nM
- EC50 ([4]; Table 3): > 30000 nM
- IC50 ([4]; Table 3): 527 nM

- Ki [5]: 652 nM
- LPA1 agonist/antagonist activity in words [5]: pantagonist
- IC50 ([5]; LPA1 IC50, 200 nM LPA): 1110 nM
- IC50 ([5]; LPA1 IC50, 300 nM LPA): 2150 nM
- IC50 ([5]; LPA1 IC50, Table 3): 1110 nM
- IC50 ([5]; RH-LPA1 cells IC50, inhibition of 200 nM LPA response): 1110 nM
- IC50 ([5]; RH-LPA1 cells IC50, inhibition of 300 nM LPA response): 2150 nM
- EC50 ([5]; read-out: LPA1 EC50, Table 3): > 30000 nM
- ATX (% inhib.) [1]: 26%
- IC50 [1]: 232 nM
- IC50 ([6]; Homo sapiens, PC-3, inhibition of 100 nM LPA response): 1860 nM
- IC50 ([6]; Homo sapiens, PC-3, inhibition of 300 nM LPA response): 2110 nM
- LPA2 agonist/antagonist activity in words [2]: pantagonist
- EC50 ([2]; LPA2 EC50, *transient): 1180 nM
- EC50 ([2]; LPA2 EC50, Table 3): > 30000 nM
- IC50 ([2]; RH-LPA2 cells IC50, inhibition of 200 nM LPA response): 397 nM
- IC50 ([2]; RH-LPA2 cells IC50, inhibition of 300 nM LPA response): 657 nM
- PPARγ [3]: Agonist
- Ki [4]: 681 nM
- LPA3 agonist/antagonist activity in words [4]: pantagonist
- EC50 ([4]; Table 3): > 30000 nM
- IC50 ([4]; 200 nM LPA): 2870 nM
- IC50 ([4]; Table 3): 2870 nM
Molecule: CCCCCCCCCCCCC1OCC(COP(=O)(O)O)O1 (stereo not shown) [Analog 12]

Molecule: CCCCCCCC/C=C\CCCCCCCC1OCC(COP([O-])(O)=S)O1.[K+] (stereo not shown) [Analog 14, 2-Heptadec-8-enyl-(1,3)dioxolan-4yl methyldipotassium thiophosphate]
- EC50 ([5]; LPA1 EC50): 981 nM
- Emax ([5]; RH7777, read-out: RH-LPA1 cells maximal response): ~50%
- EC50 ([5]; RH-LPA1 cells EC50, compound alone): 2170 nM
- LPA1 effect in words ([5]; Tables 2, 4, 6): Partial agonist
- RH-LPA1 cells effect of compound alone ([5]; compound alone): stimulatory effect. Its maximal
- EC50 ([6]; Homo sapiens, PC-3, compound alone): 1370 nM
- Emax ([6]; Homo sapiens, PC-3, of the LPA-alone max. response, read-out: PC3 cells maximal response): ~86%
- PC3 cells effect of compound alone ([6]; compound alone): stimulatory effect. Its maximal
- LPA2 effect in words ([2]; *transient): almost full agonist
- EC50 ([2]; LPA2 EC50, *transient): 34 nM
- Emax ([2]; RH7777, read-out: RH-LPA2 cells maximal response): ~74%
- EC50 ([2]; RH-LPA2 cells EC50, compound alone): 639 nM
- RH-LPA2 cells effect of compound alone ([2]; compound alone): stimulatory effect. Its maximal
- LPA3 effect in words ([4]; Tables 2, 4, 6): Partial agonist
- EC50 [4]: 639 nM

Molecule: CCCCCCCCC=CCCCCCCCC1OCC(COP(=O)([O-])O)O1.[K+] (stereo not shown) [Analog 37]
- ATX (% inhib.) [1]: 46%
- IC50 [1]: 238 nM
- EC50 ([2]; read-out: LPA2 EC50, Table 3): > 10000 nM
- IC50 ([2]; read-out: LPA2 IC50, Table 3): > 30000 nM
- PPARγ [3]: Agonist
- LPA3 agonist/antagonist activity in words [4]: LPA3 antagonists
- Ki ([4]; read-out: LPA3 (Ki), Table 3): 241 nM
- EC50 ([4]; Table 3): > 30000 nM
- IC50 ([4]; Table 3): 484 nM

Molecule: CCCCCCCCC=CCCCCCCCC1OCC(COP([O-])(O)=S)O1.[K+] (stereo not shown) [Analog 38]
- LPA1 agonist/antagonist activity in words [5]: pan-agonists
- LPA1 (Emax) [5, 9]: 68%
- EC50 ([5]; read-out: LPA1 EC50, Table 3): 2260 nM
- IC50 ([5]; read-out: LPA1 IC50, Table 3): > 30000 nM
- ATX (% inhib.) [1]: 64%
- IC50 [1]: 363 nM
- LPA2 agonist/antagonist activity in words [2]: pan-agonists
- LPA2 (Emax) [2, 9]: 72%
- EC50 ([2]; read-out: LPA2 EC50, Table 3): 1540 nM
- IC50 ([2]; read-out: LPA2 IC50, Table 3): > 30000 nM
- PPARγ [3]: Agonist
- LPA3 agonist/antagonist activity in words [4]: full agonists
- LPA3 (Emax) [4, 9]: 102%
- EC50 ([4]; Table 3): 204 nM
- IC50 ([4]; Table 3): > 30000 nM

- LPA1 agonist/antagonist activity in words [5]: no effect
- LPA2 agonist/antagonist activity in words [2]: no effect
- PPARγ activation in words [3]: agonist of PPARγ
- LPA3 agonist/antagonist activity in words [4]: selective LPA3 antagonist
- Ki ([4]; read-out: LPA3 (Ki), Table 5): 196 nM
- IC50 ([4]; Table 5): 414 nM
Molecule: CCCCCCCCNC(=O)[C@H](COP(=O)(O)O)NC(=O)CCCCCCC [Cpd 19a]

- LPA1 agonist/antagonist activity in words [5]: no effect
- LPA2 agonist/antagonist activity in words [2]: no effect
- PPARγ activation in words [3]: no effect
- LPA3 agonist/antagonist activity in words [4]: true LPA3 receptor specific antagonist
- Ki ([4]; read-out: LPA3 (Ki), Table 5): 489 nM
- IC50 ([4]; Table 5): 935 nM
Molecule: CCCCCCCCNC(=O)[C@@H](COP(=O)(O)O)NC(=O)CCCCCCC [Cpd 19b]

Molecule: dioctanoyl glycerol pyrophosphate [DGPP 8:0]
- LPA3 activity in words, previously reported [7]: antagonists
- LPA1 activity in words, previously reported [8]: antagonists
